Test: xn = mol fraction of the nth substance listed
Settings: 101 kPa, Liquid; for viscosity: Capillary tube (Ostwald / Ubbelohde) method; for speed of sound: Frequency=3 MHz, Linear variable-path acoustic interferometer

C1COCCO1 [1,4-dioxane] + Cc1ccccc1
Settings	speed of sound [m/s]	viscosity [mPa·s]
293.15 K, x1 = 0.0688	1330.1	0.6346
293.15 K, x1 = 0.1373	1331.5	0.6812
293.15 K, x1 = 0.2112	1333	0.732
293.15 K, x1 = 0.2858	1334.8	0.784
293.15 K, x1 = 0.3552	1336.5	0.8327
293.15 K, x1 = 0.4361	1338.6	0.8901
293.15 K, x1 = 0.5064	1340.7	0.9405
293.15 K, x1 = 0.5819	1343.2	0.9951
293.15 K, x1 = 0.6506	1346	1.045
293.15 K, x1 = 0.7212	1349.1	1.097
293.15 K, x1 = 0.7903	1352.5	1.148
293.15 K, x1 = 0.864	1356.9	1.203
293.15 K, x1 = 0.9336	1361.8	1.256
293.15 K, x1 = 1	1367.2	1.306
298.15 K, x1 = 0.0688	1308.4	0.5952
298.15 K, x1 = 0.1373	1309.5	0.6366
298.15 K, x1 = 0.2112	1310.9	0.682
298.15 K, x1 = 0.2858	1312.4	0.7282
298.15 K, x1 = 0.3552	1313.9	0.7716
298.15 K, x1 = 0.4361	1315.9	0.8229
298.15 K, x1 = 0.5064	1317.9	0.8679
298.15 K, x1 = 0.5819	1320.4	0.9166
298.15 K, x1 = 0.6506	1323.2	0.9613
298.15 K, x1 = 0.7212	1326.3	1.008
298.15 K, x1 = 0.7903	1329.8	1.053
298.15 K, x1 = 0.864	1334.2	1.103
298.15 K, x1 = 0.9336	1339.1	1.15
298.15 K, x1 = 1	1344.7	1.195
303.15 K, x1 = 0.0688	1286.3	0.56
303.15 K, x1 = 0.1373	1287.2	0.597
303.15 K, x1 = 0.2112	1288.4	0.6373
303.15 K, x1 = 0.2858	1289.7	0.6785
303.15 K, x1 = 0.3552	1291.2	0.7173
303.15 K, x1 = 0.4361	1293.2	0.7631
303.15 K, x1 = 0.5064	1295.2	0.8033
303.15 K, x1 = 0.5819	1297.8	0.8469
303.15 K, x1 = 0.6506	1300.6	0.887
303.15 K, x1 = 0.7212	1303.9	0.9286
303.15 K, x1 = 0.7903	1307.5	0.9696
303.15 K, x1 = 0.864	1312.2	1.014
303.15 K, x1 = 0.9336	1317.3	1.056
303.15 K, x1 = 1	1323.1	1.096
308.15 K, x1 = 0.0688	1264.8	0.5284
308.15 K, x1 = 0.1373	1265.5	0.5619
308.15 K, x1 = 0.2112	1266.5	0.5984
308.15 K, x1 = 0.2858	1267.7	0.6357
308.15 K, x1 = 0.3552	1269	0.6709
308.15 K, x1 = 0.4361	1270.9	0.7124
308.15 K, x1 = 0.5064	1272.9	0.7489
308.15 K, x1 = 0.5819	1275.4	0.7885
308.15 K, x1 = 0.6506	1278.2	0.8249
308.15 K, x1 = 0.7212	1281.6	0.8627
308.15 K, x1 = 0.7903	1285.3	0.8998
308.15 K, x1 = 0.864	1290.1	0.9399
308.15 K, x1 = 0.9336	1295.3	0.978
308.15 K, x1 = 1	1301.2	1.014
313.15 K, x1 = 0.0688	1242.8	0.4969
313.15 K, x1 = 0.1373	1243.4	0.5278
313.15 K, x1 = 0.2112	1244.3	0.5615
313.15 K, x1 = 0.2858	1245.4	0.596
313.15 K, x1 = 0.3552	1246.7	0.6284
313.15 K, x1 = 0.4361	1248.6	0.6666
313.15 K, x1 = 0.5064	1250.6	0.7003
313.15 K, x1 = 0.5819	1253.2	0.7368
313.15 K, x1 = 0.6506	1256	0.7702
313.15 K, x1 = 0.7212	1259.4	0.805
313.15 K, x1 = 0.7903	1263.3	0.8393
313.15 K, x1 = 0.864	1268.2	0.8762
313.15 K, x1 = 0.9336	1273.6	0.9114
313.15 K, x1 = 1	1279.7	0.945
318.15 K, x1 = 0.0688	1221	0.467
318.15 K, x1 = 0.1373	1221.5	0.4958
318.15 K, x1 = 0.2112	1222.3	0.5272
318.15 K, x1 = 0.2858	1223.3	0.5593
318.15 K, x1 = 0.3552	1224.6	0.5895
318.15 K, x1 = 0.4361	1226.5	0.6251
318.15 K, x1 = 0.5064	1228.6	0.6564
318.15 K, x1 = 0.5819	1231.2	0.6903
318.15 K, x1 = 0.6506	1234.1	0.7215
318.15 K, x1 = 0.7212	1237.6	0.7539
318.15 K, x1 = 0.7903	1241.6	0.7857
318.15 K, x1 = 0.864	1246.7	0.82
318.15 K, x1 = 0.9336	1252.3	0.8527
318.15 K, x1 = 1	1258.6	0.884

C1COCCO1 [1,4-dioxane] + c1ccccc1
Settings	speed of sound [m/s]	viscosity [mPa·s]
293.15 K, x1 = 0.0713	1329.8	0.6955
293.15 K, x1 = 0.1403	1334.5	0.7421
293.15 K, x1 = 0.2123	1339.4	0.7905
293.15 K, x1 = 0.2809	1343.6	0.8364
293.15 K, x1 = 0.3528	1347.9	0.8842
293.15 K, x1 = 0.4195	1351.5	0.9283
293.15 K, x1 = 0.5037	1355.8	0.9838
293.15 K, x1 = 0.58	1359.2	1.034
293.15 K, x1 = 0.6504	1362.2	1.08
293.15 K, x1 = 0.7197	1364.2	1.125
293.15 K, x1 = 0.7822	1365.4	1.165
293.15 K, x1 = 0.8561	1366.9	1.213
293.15 K, x1 = 0.9287	1367.4	1.26
293.15 K, x1 = 1	1367.2	1.306
298.15 K, x1 = 0.0713	1304	0.6485
298.15 K, x1 = 0.1403	1308.1	0.6905
298.15 K, x1 = 0.2123	1312.5	0.7339
298.15 K, x1 = 0.2809	1316.5	0.775
298.15 K, x1 = 0.3528	1320.5	0.8179
298.15 K, x1 = 0.4195	1324	0.8574
298.15 K, x1 = 0.5037	1328.2	0.907
298.15 K, x1 = 0.58	1332	0.9517
298.15 K, x1 = 0.6504	1335.1	0.9928
298.15 K, x1 = 0.7197	1337.5	1.033
298.15 K, x1 = 0.7822	1339.8	1.069
298.15 K, x1 = 0.8561	1342	1.112
298.15 K, x1 = 0.9287	1343.7	1.154
298.15 K, x1 = 1	1344.7	1.195
303.15 K, x1 = 0.0713	1279.4	0.6068
303.15 K, x1 = 0.1403	1283	0.6446
303.15 K, x1 = 0.2123	1287	0.6836
303.15 K, x1 = 0.2809	1290.6	0.7206
303.15 K, x1 = 0.3528	1294.2	0.7591
303.15 K, x1 = 0.4195	1297.6	0.7946
303.15 K, x1 = 0.5037	1301.8	0.839
303.15 K, x1 = 0.58	1305.7	0.879
303.15 K, x1 = 0.6504	1309.2	0.9157
303.15 K, x1 = 0.7197	1312.3	0.9517
303.15 K, x1 = 0.7822	1315.1	0.9841
303.15 K, x1 = 0.8561	1318.2	1.022
303.15 K, x1 = 0.9287	1320.8	1.059
303.15 K, x1 = 1	1323.1	1.096
308.15 K, x1 = 0.0713	1255.4	0.5686
308.15 K, x1 = 0.1403	1258.7	0.6033
308.15 K, x1 = 0.2123	1262	0.6392
308.15 K, x1 = 0.2809	1265.1	0.673
308.15 K, x1 = 0.3528	1268.7	0.7082
308.15 K, x1 = 0.4195	1272	0.7406
308.15 K, x1 = 0.5037	1276.1	0.7812
308.15 K, x1 = 0.58	1280.2	0.8176
308.15 K, x1 = 0.6504	1284	0.851
308.15 K, x1 = 0.7197	1287.4	0.8837
308.15 K, x1 = 0.7822	1290.8	0.9131
308.15 K, x1 = 0.8561	1294.5	0.9477
308.15 K, x1 = 0.9287	1297.9	0.9815
308.15 K, x1 = 1	1301.2	1.014
313.15 K, x1 = 0.0713	1231.7	0.532
313.15 K, x1 = 0.1403	1234.3	0.5644
313.15 K, x1 = 0.2123	1237.2	0.5979
313.15 K, x1 = 0.2809	1240.5	0.6294
313.15 K, x1 = 0.3528	1244	0.6621
313.15 K, x1 = 0.4195	1247.1	0.6921
313.15 K, x1 = 0.5037	1251.3	0.7297
313.15 K, x1 = 0.58	1255.5	0.7634
313.15 K, x1 = 0.6504	1259.4	0.7943
313.15 K, x1 = 0.7197	1263.5	0.8245
313.15 K, x1 = 0.7822	1266.8	0.8516
313.15 K, x1 = 0.8561	1271.2	0.8835
313.15 K, x1 = 0.9287	1275.3	0.9146
313.15 K, x1 = 1	1279.7	0.945
318.15 K, x1 = 0.0713	1209.6	0.4993
318.15 K, x1 = 0.1403	1211.9	0.5297
318.15 K, x1 = 0.2123	1214.5	0.5611
318.15 K, x1 = 0.2809	1217.2	0.5906
318.15 K, x1 = 0.3528	1220.5	0.6211
318.15 K, x1 = 0.4195	1223.6	0.6492
318.15 K, x1 = 0.5037	1227.9	0.6842
318.15 K, x1 = 0.58	1232.1	0.7156
318.15 K, x1 = 0.6504	1236	0.7443
318.15 K, x1 = 0.7197	1240.1	0.7724
318.15 K, x1 = 0.7822	1243.9	0.7975
318.15 K, x1 = 0.8561	1248.8	0.8271
318.15 K, x1 = 0.9287	1253.6	0.8559
318.15 K, x1 = 1	1258.6	0.884

Reference: the NIST ThermoML archive (doi:10.1016/j.jct.2017.01.016)
